Experimental data as given in patent US5929236A, “2-substituted morpholine and thiomorpholine derivatives as GABA-B antagonists” (Schering Corporation, priority 1995, dated 1999).

Experiments:
[1] = molecular target: T1, GABAB receptors (Rattus norvegicus, UniProt Q9Z0U4); test: GABAB Receptor Binding Assay ([3H]GABA, rat brain synaptosomes)
T1 construct: Rat brain synaptosomes are used as a source of GABAB receptors; from tissue; host or cells: rat brain synaptosomes
Experimental: GABAB Receptor Binding Assay
The percentage inhibition of GABA binding to GABAB receptors is measured by tritiated GABA ([^3 H]GABA) determination of the degree of binding by scintillation counting. Rat brain synaptosomes are used as a source of GABAB receptors. An incubation medium is prepared from the following: 20 μg/mL of the compound to be tested as a solution in 1% DMSO/water; 5 nM [^3 H]GABA; 50 mM Tris buffer (pH 7.5); and 2.5 mM CaCl2. The medium also contains 40 μM isoguvacine to selectively block binding to GABAA receptors. The synaptosome (200 μg/mL) is added to the incubation medium and incubated for 30 minutes at 20° C. The incubation is terminated by filtration and counted to determine the percentage inhibition of [^3 H]-GABA binding. The results are reported as IC50 values for those compounds inhibiting [^3 H]-GABA binding by >50%.

[2] = molecular target: prejunctional GABAB receptors (Cavia porcellus, UniProt A0A286X9P6); test: In Vitro Assay (guinea pig trachea, reversal of baclofen inhibition of EFS-induced contractions); format: cell-based, guinea pig (male Hartley); conditions: 30 μmol/L baclofen; for IC30: guinea pig trachea
prejunctional GABAB receptors, sequence (A0A286X9P6 30-844): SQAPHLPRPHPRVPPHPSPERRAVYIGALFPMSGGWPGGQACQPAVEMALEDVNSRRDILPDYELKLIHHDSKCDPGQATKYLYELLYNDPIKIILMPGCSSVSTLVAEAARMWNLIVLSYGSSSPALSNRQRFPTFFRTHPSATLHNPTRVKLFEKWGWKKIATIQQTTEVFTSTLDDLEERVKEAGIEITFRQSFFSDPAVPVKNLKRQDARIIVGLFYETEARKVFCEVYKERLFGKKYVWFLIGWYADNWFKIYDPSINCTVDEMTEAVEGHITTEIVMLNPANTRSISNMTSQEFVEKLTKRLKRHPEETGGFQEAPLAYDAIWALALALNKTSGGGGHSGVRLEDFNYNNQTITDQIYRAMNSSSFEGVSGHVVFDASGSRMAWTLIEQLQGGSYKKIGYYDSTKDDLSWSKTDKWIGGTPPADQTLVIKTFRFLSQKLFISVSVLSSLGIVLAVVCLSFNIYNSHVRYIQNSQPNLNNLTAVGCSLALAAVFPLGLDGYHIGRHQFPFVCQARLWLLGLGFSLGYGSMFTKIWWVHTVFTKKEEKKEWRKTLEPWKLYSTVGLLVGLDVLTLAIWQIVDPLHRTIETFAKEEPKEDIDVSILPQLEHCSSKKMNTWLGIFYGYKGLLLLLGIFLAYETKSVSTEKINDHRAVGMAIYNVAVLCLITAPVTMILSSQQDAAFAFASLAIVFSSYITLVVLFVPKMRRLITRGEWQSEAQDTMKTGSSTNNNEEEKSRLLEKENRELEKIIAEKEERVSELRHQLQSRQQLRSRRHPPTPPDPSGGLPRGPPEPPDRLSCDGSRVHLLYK
prejunctional GABAB receptors, sequence (H0V741 1-820 partner): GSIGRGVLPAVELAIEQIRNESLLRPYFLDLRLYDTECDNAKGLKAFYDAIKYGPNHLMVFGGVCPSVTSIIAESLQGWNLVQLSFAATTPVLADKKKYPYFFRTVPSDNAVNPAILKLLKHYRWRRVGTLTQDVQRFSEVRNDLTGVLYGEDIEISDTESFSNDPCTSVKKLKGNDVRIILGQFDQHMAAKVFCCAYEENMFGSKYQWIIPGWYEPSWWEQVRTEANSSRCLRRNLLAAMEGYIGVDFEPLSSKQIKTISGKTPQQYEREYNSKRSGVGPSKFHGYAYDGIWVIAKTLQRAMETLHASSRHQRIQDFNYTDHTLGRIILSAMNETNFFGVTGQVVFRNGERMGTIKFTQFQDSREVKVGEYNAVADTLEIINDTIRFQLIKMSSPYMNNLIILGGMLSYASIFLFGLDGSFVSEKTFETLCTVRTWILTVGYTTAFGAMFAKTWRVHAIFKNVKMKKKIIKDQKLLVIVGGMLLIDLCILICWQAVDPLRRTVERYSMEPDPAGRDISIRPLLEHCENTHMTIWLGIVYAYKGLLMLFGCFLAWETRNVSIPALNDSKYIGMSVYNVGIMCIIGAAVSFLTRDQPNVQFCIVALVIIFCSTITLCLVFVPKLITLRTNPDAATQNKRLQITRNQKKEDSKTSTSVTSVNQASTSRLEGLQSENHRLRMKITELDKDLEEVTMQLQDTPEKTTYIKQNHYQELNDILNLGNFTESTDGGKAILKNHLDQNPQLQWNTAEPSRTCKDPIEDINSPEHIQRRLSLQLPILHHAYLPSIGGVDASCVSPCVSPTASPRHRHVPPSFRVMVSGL
Experimental: Male Hartley guinea pigs (450-650 g) are sacrificed by stunning and the trachea removed proximal to the carina and cut into 5 mm segments. The segments are attached to isometric force displacement transducers (Model FT03: Grass Instruments) and suspended in 15 mL organ baths filled with low Ca^2+ (0.6 mmol/L) Tyrode's buffer solution (pH 7.4) supplemented with 5.6 mmol/L glucose, 30 μmol/L choline and 2 μmol/L indomethacin. The solution is bubbled with a mixture of 95% O2 +5% CO2 and maintained at 37° C. The tracheal segments are allowed to equilibrate for 90 minutes under a resting tension of 0.5 g.
Platinum electrodes are placed on either side of the trachea and electrical field stimulation (EFS) (20 V, 8 Hz, 0.5 ms pulse for 5 s) was generated each minute from an electrical stimulator (Model S-88: Grass Instruments) and delivered to the electrodes through a stimulus distributor (Buxco Electronics). The stimulation parameters are chosen as appropriate for producing cholinergic contractions of the trachea that are sensitive to the inhibitory effects of compounds acting at prejunctional GABAB receptors. Contractile responses were recorded on a polygraph (Harvard Apparatus). The compound to be tested is added to the bath 10 min. before addition of 30 μmol/L baclofen. The effect of baclofen treatment in the absence or in the presence of the compound to be tested is expressed as a percent inhibition of EFS-induced contractions.

[3] = test system: Respiratory Depressant Effect of Baclofen; test: Inhibition of Respiratory Depressant Effect of Baclofen; format: in vivo, guinea pig; conditions: baclofen alone (3 mg/kg, sc)
Experimental: (§1) Animal Model for Respiratory Depression:
Place unanesthetized guinea pigs in a head-out plethysmograph and expose to a CO2 enriched gas mixture (10% CO2, 21% O2, 69% N2) for 10 min., (see Danko, et al., J. Pharm. Methods, 19, 165-173 (1988)). Plethysmograph pressure is detected with a transducer connected to a chart recorder. Minute ventilation is calculated as the product of tidal volume and respiratory frequency. The compound to be tested is administered orally, subcutaneously (sc), intraperitoneally (ip) or via an intracerebroventricular route (icv). Baclofen (3 mg/kg, sc) was given 30 min before exposure to the CO2 enriched gas. […] A 40 or 30 min. preteratment is used for the subcutaneous and intraperitoneal routes, respectively. The vehicle for oral, sc or ip administration is saline. For icv administration, single icv cannulae are placed in the lateral ventricle of anesthetized guinea pigs, (see McLeod, et al., Eur. J. Pharmacol., 209, 141-142 (1988)). The animals are allowed to recover approximately one week prior to use for ventilation experiments. The vehicle for icv administration is artificial cerebrospinal fluid (CSF).

[4] = test system: Respiratory Depressant Effect of Baclofen; test: Reversal of the Respiratory Depressant Effect of Baclofen via icv Administration; format: in vivo, guinea pig; conditions: baclofen plus vehicle
Experimental: as §1
Place unanesthetized guinea pigs in a head-out plethysmograph and expose to a CO2 enriched gas mixture (10% CO2, 21% O2, 69% N2) for 10 min., (see Danko, et al., J. Pharm. Methods, 19, 165-173 (1988)). Plethysmograph pressure is detected with a transducer connected to a chart recorder. Minute ventilation is calculated as the product of tidal volume and respiratory frequency. The compound to be tested is administered orally, subcutaneously (sc), intraperitoneally (ip) or via an intracerebroventricular route (icv). Baclofen (3 mg/kg, sc) was given 30 min before exposure to the CO2 enriched gas. When given by the oral route, the compounds is administered 1, 3, 5 or 7 h before exposure to CO2 enriched gas. A 40 or 30 min. preteratment is used for the subcutaneous and intraperitoneal routes, respectively. The vehicle for oral, sc or ip administration is saline. For icv administration, single icv cannulae are placed in the lateral ventricle of anesthetized guinea pigs, (see McLeod, et al., Eur. J. Pharmacol., 209, 141-142 (1988)). The animals are allowed to recover approximately one week prior to use for ventilation experiments. The vehicle for icv administration is artificial cerebrospinal fluid (CSF).

[5] = test system: GABAB; conditions: literature, in words; cited from earlier work
[6] = literature (Olpe, et al), in words; cited from earlier work
[7] = 5 nM [3H]GABA, rat brain synaptosomes, 20° C., 30 min

T1 sequence (Q9Z0U4 17-960 limits assumed): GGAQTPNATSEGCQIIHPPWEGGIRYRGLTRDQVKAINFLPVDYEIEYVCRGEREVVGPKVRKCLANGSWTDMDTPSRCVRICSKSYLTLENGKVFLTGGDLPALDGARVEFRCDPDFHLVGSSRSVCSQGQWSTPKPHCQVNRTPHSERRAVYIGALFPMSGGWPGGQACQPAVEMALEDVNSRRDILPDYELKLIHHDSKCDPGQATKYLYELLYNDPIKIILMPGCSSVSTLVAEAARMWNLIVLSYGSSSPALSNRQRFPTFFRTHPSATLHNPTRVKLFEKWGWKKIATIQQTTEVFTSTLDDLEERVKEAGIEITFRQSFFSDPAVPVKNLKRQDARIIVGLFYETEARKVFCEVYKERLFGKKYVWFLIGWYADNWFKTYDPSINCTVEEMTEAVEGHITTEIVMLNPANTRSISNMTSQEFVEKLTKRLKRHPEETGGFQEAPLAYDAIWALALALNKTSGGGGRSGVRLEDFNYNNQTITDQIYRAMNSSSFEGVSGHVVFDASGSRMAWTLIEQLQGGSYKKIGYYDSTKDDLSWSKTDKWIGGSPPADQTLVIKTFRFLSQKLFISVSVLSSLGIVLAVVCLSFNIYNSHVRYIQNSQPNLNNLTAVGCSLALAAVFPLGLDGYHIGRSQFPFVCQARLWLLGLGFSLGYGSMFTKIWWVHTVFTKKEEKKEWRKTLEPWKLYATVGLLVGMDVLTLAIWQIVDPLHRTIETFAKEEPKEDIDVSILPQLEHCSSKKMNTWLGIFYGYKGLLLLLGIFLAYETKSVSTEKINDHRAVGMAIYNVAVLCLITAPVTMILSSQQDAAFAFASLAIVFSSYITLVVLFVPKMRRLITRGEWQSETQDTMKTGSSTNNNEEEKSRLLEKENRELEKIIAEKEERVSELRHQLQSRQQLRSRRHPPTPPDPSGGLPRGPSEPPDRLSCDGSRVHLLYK
T1 sequence (O88871 41-940 partner): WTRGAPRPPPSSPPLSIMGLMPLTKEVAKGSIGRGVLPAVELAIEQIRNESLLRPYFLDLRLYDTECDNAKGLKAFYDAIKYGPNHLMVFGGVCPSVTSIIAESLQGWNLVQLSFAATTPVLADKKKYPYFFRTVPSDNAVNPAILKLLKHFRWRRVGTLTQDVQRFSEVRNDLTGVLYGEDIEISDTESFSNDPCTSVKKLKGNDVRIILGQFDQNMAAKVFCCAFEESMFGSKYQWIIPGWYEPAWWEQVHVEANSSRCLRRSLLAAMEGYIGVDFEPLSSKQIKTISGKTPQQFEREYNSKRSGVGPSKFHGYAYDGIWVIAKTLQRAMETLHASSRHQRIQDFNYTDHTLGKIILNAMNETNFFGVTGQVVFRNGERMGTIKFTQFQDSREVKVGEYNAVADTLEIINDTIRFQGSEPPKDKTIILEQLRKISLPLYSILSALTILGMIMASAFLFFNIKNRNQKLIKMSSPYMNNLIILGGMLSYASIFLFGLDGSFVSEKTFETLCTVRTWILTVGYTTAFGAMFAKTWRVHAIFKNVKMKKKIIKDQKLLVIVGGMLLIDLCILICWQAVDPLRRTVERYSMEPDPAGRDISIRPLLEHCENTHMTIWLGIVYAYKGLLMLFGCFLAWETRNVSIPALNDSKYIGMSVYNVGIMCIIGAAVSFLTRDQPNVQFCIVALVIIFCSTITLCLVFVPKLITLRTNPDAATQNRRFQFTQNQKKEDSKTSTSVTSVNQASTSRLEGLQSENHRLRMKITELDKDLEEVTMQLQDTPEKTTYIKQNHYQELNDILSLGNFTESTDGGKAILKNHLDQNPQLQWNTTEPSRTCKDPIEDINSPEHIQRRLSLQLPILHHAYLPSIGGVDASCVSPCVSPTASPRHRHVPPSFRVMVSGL

SMILES | IC50 [1, 7] | inhibition at 100 µM ([2]; 100 μM) | inhibition at 300 µM [2] | further results
CC[C@@H]1CO[C@H](CC(=O)O)CN1 | 100 µM | 50% |  | 
O=C(O)CC1CNC2(CCCC2)CO1 (stereo not drawn) [Example 9] | 10 µM | 95% | 97% | 
CC[C@H]1CO[C@H](CC(=O)O)CN1 | > 100 µM | 17% |  | 
CP(=O)(O)CC1CN(Cc2ccccc2)CCO1 (stereo not drawn) [Example 23] | > 100 µM | 31% |  | 
C[C@@H]1CO[C@@H](CC(=O)O)CN1 (relative stereo) [Example 14A] | 30 µM | 63% | 75% | 
O=C(O)CC1CNCCO1 (stereo not drawn) | 50 µM | 59% | 46% | 
CC1CNCC(CC(=O)O)S1 (stereo not drawn) | > 100 µM | 21% |  | 
NCC(CC(=O)O)c1ccc(Cl)cc1 (stereo not drawn) [Baclofen, reference compound] |  |  |  | Inhibition of ventilation [3]: 44-60%; Inhibition of ventilation [4]: 82 ± 5%
CC[C@]1(CO)CO[C@@H](CC(=O)O)CN1 (relative stereo) [Example 18] | 100 ± 40 µM | 50% |  | 
CC1(C)COC(CP(C)(=O)O)CN1 (stereo not drawn) | 2 µM | 100% |  | IC30 [2]: 1.9 µM
C[C@@]1(CO)CO[C@@H](CC(=O)O)CN1 (relative stereo) [Example 21] |  |  |  | IC30 [2]: 0.85 µM
C[C@H]1CS[C@@H](CC(=O)O)CN1 (relative stereo) [Example 13B] | 60 µM | 55% |  | 
C[C@@H]1CS[C@@H](CC(=O)O)CN1 (relative stereo) [Example 13C] | 20 µM | 81% | 88% | 
C[C@H]1CO[C@@H](CC(=O)O)CN1 (relative stereo) [Example 14] | 20 µM | 74% | 95% | 
CP(=O)(O)CC1CNC2(CCCC2)CO1 (stereo not drawn) | 3 µM |  |  | IC30 [2]: 3.3 µM
NCC(O)(CS(=O)(=O)O)c1ccc(Cl)cc1 (stereo not drawn) [2-hydroxy saclofen] |  |  |  | GABAB receptor affinity [5]: low affinity
CC1(C)COC(CC(=O)O)CN1 (single isomer, unassigned) [Example 6B] | > 100 µM |  | 42% | In Vitro % inhibition ([2]; 100 μM): 8%
CC[C@@H]1CO[C@@H](CC(=O)O)CN1 [Example 11] | 14 µM | 82% | 95% | 
CC[C@@]1(CO)CO[C@@H](CC(=O)O)CN1 (relative stereo) [Example 19] | 19 ± 10 µM | 90% | 99% | 
O=C(O)CC1CNCCS1 (stereo not drawn) [Example 16] |  | 44% |  | IC50 ([1]; unit inferred): > 100 µM
C[C@]1(CO)CO[C@@H](CC(=O)O)CN1 (relative stereo) [Example 20] | 3.8 µM |  |  | inhibition at 30 µM ([2]; 30 μM): 24%
CCOC(OCC)P(=O)(O)CCCN [CGP 35348, 3-aminopropyl(diethoxymethyl)phosphinic acid] |  |  |  | GABAB receptor affinity [5]: low receptor affinity (comparable to 2-hydroxy saclofen); Penetration of the blood/brain barrier [6]: can penetrate the blood/brain barrier
O=C(O)CC1CNC2(CC2)CO1 (stereo not drawn) [Example 9A] | 37 ± 12 µM | 76% |  | 
CP(=O)(O)CC1CNCCO1 (stereo not drawn) [Example 24] | 6 µM | 100% | 98% | 
CC1(C)COC(CC(=O)O)CN1 (stereo not drawn) [Example 2] | 6 µM | 96% | 100% | IC30 [2]: 1.5 µM
